Experimental data from the supplement of paper PMC10307832.

Legend:
Test in all cases: relative viability (nuclei count vs DMSO), 5 days (fraction); higher = more cells survive
Masitinib + Olaparib = compound: Cc1ccc(NC(=O)c2ccc(CN3CCN(C)CC3)cc2)cc1Nc1nc(-c2cccnc2)cs1 [Masitinib] + O=C(c1cc(Cc2n[nH]c(=O)c3ccccc23)ccc1F)N1CCN(C(=O)C2CC2)CC1 [Olaparib] (partner 8 µM)
In short: (§1)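 One day after seeding in 1536-well plates, lung cancer cell lines were dosed by pin tool. Dosing was either single-drug or a fixed anchor-drug dose plus five library-drug doses (not always all listed) in √10 steps. After 5 days, nuclei were stained in one fix-and-stain step and counted on 4× images, and relative viability is the nuclei count of treated wells over that of vehicle wells, given as the median of duplicate plates.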

Masitinib + Crizotinib = compound: Cc1ccc(NC(=O)c2ccc(CN3CCN(C)CC3)cc2)cc1Nc1nc(-c2cccnc2)cs1 [Masitinib] + C[C@@H](Oc1cc(-c2cnn(C3CCNCC3)c2)cnc1N)c1c(Cl)ccc(F)c1Cl [Crizotinib] (partner 1 µM)
In short: as §1

[1] = compound: CC1=CC(=CC=C1)NC2=NC(=CS2)C3=CC=NC=C3 + C[C@]1(O)C[C@@H](c2nc(-c3ccc4ccc(-c5ccccc5)nc4c3)c3c(N)nccn32)C1 [Linsitinib] (partner 1 µM)
In short: as §1

Masitinib + Pemetrexed = compound: Cc1ccc(NC(=O)c2ccc(CN3CCN(C)CC3)cc2)cc1Nc1nc(-c2cccnc2)cs1 [Masitinib] + Nc1nc2[nH]cc(CCc3ccc(C(=O)N[C@@H](CCC(=O)O)C(=O)O)cc3)c2c(=O)[nH]1 [Pemetrexed] (partner 0.2 µM)
In short: as §1

Cell Line: NCI-H650
- relative viability (Masitinib + Olaparib; first compound 0.01 µM): 0.41
- relative viability (Masitinib + Olaparib; first compound 0.03162 µM): 0.386
- relative viability (Masitinib + Olaparib; first compound 0.1 µM): 0.422
- relative viability (Masitinib + Olaparib; first compound 0.3162 µM): 0.394
- relative viability (Masitinib + Olaparib; first compound 1 µM): 0.324
- relative viability (Masitinib + Crizotinib; first compound 0.01 µM): 0.741
- relative viability (Masitinib + Crizotinib; first compound 0.03162 µM): 0.66
- relative viability (Masitinib + Crizotinib; first compound 0.1 µM): 0.932
- relative viability (Masitinib + Crizotinib; first compound 0.3162 µM): 0.643
- relative viability (Masitinib + Crizotinib; first compound 1 µM): 0.805
- relative viability ([1]; first compound 0.08 µM): 0.659
- relative viability ([1]; first compound 0.253 µM): 0.739
- relative viability ([1]; first compound 0.8 µM): 1.13
- relative viability ([1]; first compound 8 µM): 1.06
- relative viability (Masitinib + Pemetrexed; first compound 0.01 µM): 0.857
- relative viability (Masitinib + Pemetrexed; first compound 0.03162 µM): 0.832
- relative viability (Masitinib + Pemetrexed; first compound 0.1 µM): 1.04
- relative viability (Masitinib + Pemetrexed; first compound 0.3162 µM): 1.01
- relative viability (Masitinib + Pemetrexed; first compound 1 µM): 0.99

Cell Line: NCI-H1915
- relative viability (Masitinib + Olaparib; first compound 0.03162 µM): 0.289
- relative viability (Masitinib + Olaparib; first compound 0.3162 µM): 0.254
- relative viability (Masitinib + Olaparib; first compound 1 µM): 0.238
- relative viability (Masitinib + Crizotinib; first compound 0.03162 µM): 0.995
- relative viability (Masitinib + Crizotinib; first compound 0.1 µM): 1.01
- relative viability (Masitinib + Crizotinib; first compound 0.3162 µM): 1.03
- relative viability (Masitinib + Crizotinib; first compound 1 µM): 1.08
- relative viability ([1]; first compound 0.08 µM): 1.1
- relative viability ([1]; first compound 0.253 µM): 1.08
- relative viability ([1]; first compound 0.8 µM): 1.05
- relative viability ([1]; first compound 2.53 µM): 1.09
- relative viability ([1]; first compound 8 µM): 0.989
- relative viability (Masitinib + Pemetrexed; first compound 0.03162 µM): 0.507
- relative viability (Masitinib + Pemetrexed; first compound 0.3162 µM): 0.467
- relative viability (Masitinib + Pemetrexed; first compound 1 µM): 0.496

Cell Line: SW 1573
- relative viability (Masitinib + Olaparib; first compound 0.01 µM): 0.505
- relative viability (Masitinib + Olaparib; first compound 0.03162 µM): 0.472
- relative viability (Masitinib + Olaparib; first compound 0.1 µM): 0.591
- relative viability (Masitinib + Olaparib; first compound 0.3162 µM): 0.431
- relative viability (Masitinib + Olaparib; first compound 1 µM): 0.453
- relative viability (Masitinib + Crizotinib; first compound 0.01 µM): 0.761
- relative viability (Masitinib + Crizotinib; first compound 0.03162 µM): 0.786
- relative viability (Masitinib + Crizotinib; first compound 0.1 µM): 0.754
- relative viability (Masitinib + Crizotinib; first compound 0.3162 µM): 0.718
- relative viability (Masitinib + Crizotinib; first compound 1 µM): 0.778
- relative viability ([1]; first compound 0.08 µM): 0.845
- relative viability ([1]; first compound 0.253 µM): 0.65
- relative viability ([1]; first compound 0.8 µM): 0.705
- relative viability ([1]; first compound 2.53 µM): 0.901
- relative viability ([1]; first compound 8 µM): 0.779
- relative viability (Masitinib + Pemetrexed; first compound 0.01 µM): 0.808
- relative viability (Masitinib + Pemetrexed; first compound 0.03162 µM): 0.942
- relative viability (Masitinib + Pemetrexed; first compound 0.1 µM): 0.854
- relative viability (Masitinib + Pemetrexed; first compound 0.3162 µM): 0.873
- relative viability (Masitinib + Pemetrexed; first compound 1 µM): 0.92

Cell Line: NCI-H1355
- relative viability (Masitinib + Olaparib; first compound 0.01 µM): 0.727
- relative viability (Masitinib + Olaparib; first compound 0.03162 µM): 0.665
- relative viability (Masitinib + Olaparib; first compound 0.1 µM): 0.754
- relative viability (Masitinib + Olaparib; first compound 0.3162 µM): 0.521
- relative viability (Masitinib + Olaparib; first compound 1 µM): 0.761
- relative viability (Masitinib + Crizotinib; first compound 0.01 µM): 1.06
- relative viability (Masitinib + Crizotinib; first compound 0.03162 µM): 1.1
- relative viability (Masitinib + Crizotinib; first compound 0.1 µM): 1.07
- relative viability (Masitinib + Crizotinib; first compound 0.3162 µM): 0.746
- relative viability (Masitinib + Crizotinib; first compound 1 µM): 1.01
- relative viability ([1]; first compound 0.08 µM): 0.713
- relative viability ([1]; first compound 0.253 µM): 0.584
- relative viability ([1]; first compound 0.8 µM): 0.579
- relative viability ([1]; first compound 2.53 µM): 0.673
- relative viability ([1]; first compound 8 µM): 0.568
- relative viability (Masitinib + Pemetrexed; first compound 0.01 µM): 0.9
- relative viability (Masitinib + Pemetrexed; first compound 0.03162 µM): 0.92
- relative viability (Masitinib + Pemetrexed; first compound 0.1 µM): 1.1
- relative viability (Masitinib + Pemetrexed; first compound 0.3162 µM): 0.853
- relative viability (Masitinib + Pemetrexed; first compound 1 µM): 1.08

Cell Line: NCI-H1651
- relative viability (Masitinib + Olaparib; first compound 0.01 µM): 0.155
- relative viability (Masitinib + Olaparib; first compound 0.03162 µM): 0.216
- relative viability (Masitinib + Olaparib; first compound 0.1 µM): 0.177
- relative viability (Masitinib + Olaparib; first compound 0.3162 µM): 0.181
- relative viability (Masitinib + Olaparib; first compound 1 µM): 0.169
- relative viability (Masitinib + Crizotinib; first compound 0.01 µM): 0.802
- relative viability (Masitinib + Crizotinib; first compound 0.03162 µM): 0.89
- relative viability (Masitinib + Crizotinib; first compound 0.1 µM): 0.819
- relative viability (Masitinib + Crizotinib; first compound 0.3162 µM): 0.839
- relative viability (Masitinib + Crizotinib; first compound 1 µM): 0.839
- relative viability ([1]; first compound 0.08 µM): 0.958
- relative viability ([1]; first compound 0.253 µM): 0.955
- relative viability ([1]; first compound 0.8 µM): 0.919
- relative viability ([1]; first compound 2.53 µM): 0.999
- relative viability ([1]; first compound 8 µM): 0.926
- relative viability (Masitinib + Pemetrexed; first compound 0.01 µM): 0.565
- relative viability (Masitinib + Pemetrexed; first compound 0.03162 µM): 0.62
- relative viability (Masitinib + Pemetrexed; first compound 0.1 µM): 0.527
- relative viability (Masitinib + Pemetrexed; first compound 0.3162 µM): 0.632
- relative viability (Masitinib + Pemetrexed; first compound 1 µM): 0.588

Cell Line: NCI-H2023
- relative viability (Masitinib + Olaparib; first compound 0.01 µM): 0.63
- relative viability (Masitinib + Olaparib; first compound 0.03162 µM): 0.422
- relative viability (Masitinib + Olaparib; first compound 0.1 µM): 0.458
- relative viability (Masitinib + Olaparib; first compound 0.3162 µM): 0.427
- relative viability (Masitinib + Olaparib; first compound 1 µM): 0.44
- relative viability (Masitinib + Crizotinib; first compound 0.01 µM): 0.638
- relative viability (Masitinib + Crizotinib; first compound 0.03162 µM): 0.737
- relative viability (Masitinib + Crizotinib; first compound 0.1 µM): 0.645
- relative viability (Masitinib + Crizotinib; first compound 0.3162 µM): 0.493
- relative viability (Masitinib + Crizotinib; first compound 1 µM): 0.589
- relative viability ([1]; first compound 0.08 µM): 0.63
- relative viability ([1]; first compound 0.253 µM): 0.666
- relative viability ([1]; first compound 0.8 µM): 0.618
- relative viability ([1]; first compound 2.53 µM): 0.678
- relative viability ([1]; first compound 8 µM): 0.507
- relative viability (Masitinib + Pemetrexed; first compound 0.01 µM): 0.228
- relative viability (Masitinib + Pemetrexed; first compound 0.03162 µM): 0.201
- relative viability (Masitinib + Pemetrexed; first compound 0.1 µM): 0.207
- relative viability (Masitinib + Pemetrexed; first compound 0.3162 µM): 0.244
- relative viability (Masitinib + Pemetrexed; first compound 1 µM): 0.215

Cell Line: LOU-NH91
- relative viability (Masitinib + Olaparib; first compound 0.01 µM): 0.883
- relative viability (Masitinib + Olaparib; first compound 0.03162 µM): 0.917
- relative viability (Masitinib + Olaparib; first compound 0.1 µM): 0.902
- relative viability (Masitinib + Olaparib; first compound 0.3162 µM): 0.869
- relative viability (Masitinib + Olaparib; first compound 1 µM): 0.908
- relative viability (Masitinib + Crizotinib; first compound 0.01 µM): 0.706
- relative viability (Masitinib + Crizotinib; first compound 0.03162 µM): 0.683
- relative viability (Masitinib + Crizotinib; first compound 0.1 µM): 0.768
- relative viability (Masitinib + Crizotinib; first compound 0.3162 µM): 0.73
- relative viability (Masitinib + Crizotinib; first compound 1 µM): 0.712
- relative viability ([1]; first compound 0.08 µM): 0.82
- relative viability ([1]; first compound 0.253 µM): 0.925
- relative viability ([1]; first compound 0.8 µM): 0.903
- relative viability ([1]; first compound 2.53 µM): 0.979
- relative viability ([1]; first compound 8 µM): 0.769
- relative viability (Masitinib + Pemetrexed; first compound 0.01 µM): 0.363
- relative viability (Masitinib + Pemetrexed; first compound 0.03162 µM): 0.312
- relative viability (Masitinib + Pemetrexed; first compound 0.1 µM): 0.402
- relative viability (Masitinib + Pemetrexed; first compound 0.3162 µM): 0.365
- relative viability (Masitinib + Pemetrexed; first compound 1 µM): 0.376

Cell Line: NCI-H3122
- relative viability (Masitinib + Olaparib; first compound 0.01 µM): 0.64
- relative viability (Masitinib + Olaparib; first compound 0.03162 µM): 0.604
- relative viability (Masitinib + Olaparib; first compound 0.1 µM): 0.703
- relative viability (Masitinib + Olaparib; first compound 0.3162 µM): 0.589
- relative viability (Masitinib + Olaparib; first compound 1 µM): 0.615
- relative viability (Masitinib + Crizotinib; first compound 0.01 µM): 0.26
- relative viability (Masitinib + Crizotinib; first compound 0.03162 µM): 0.252
- relative viability (Masitinib + Crizotinib; first compound 0.1 µM): 0.306
- relative viability (Masitinib + Crizotinib; first compound 0.3162 µM): 0.217
- relative viability (Masitinib + Crizotinib; first compound 1 µM): 0.253
- relative viability ([1]; first compound 0.08 µM): 0.991
- relative viability ([1]; first compound 0.253 µM): 0.938
- relative viability ([1]; first compound 0.8 µM): 0.907
- relative viability ([1]; first compound 2.53 µM): 1
- relative viability ([1]; first compound 8 µM): 0.964
- relative viability (Masitinib + Pemetrexed; first compound 0.01 µM): 0.175
- relative viability (Masitinib + Pemetrexed; first compound 0.03162 µM): 0.196
- relative viability (Masitinib + Pemetrexed; first compound 0.1 µM): 0.193
- relative viability (Masitinib + Pemetrexed; first compound 0.3162 µM): 0.201
- relative viability (Masitinib + Pemetrexed; first compound 1 µM): 0.191

Cell Line: LCLC-97TM1
- relative viability (Masitinib + Olaparib; first compound 0.01 µM): 0.402
- relative viability (Masitinib + Olaparib; first compound 0.03162 µM): 0.396
- relative viability (Masitinib + Olaparib; first compound 0.1 µM): 0.406
- relative viability (Masitinib + Olaparib; first compound 0.3162 µM): 0.473
- relative viability (Masitinib + Olaparib; first compound 1 µM): 0.427
- relative viability (Masitinib + Crizotinib; first compound 0.01 µM): 0.27
- relative viability (Masitinib + Crizotinib; first compound 0.03162 µM): 0.31
- relative viability (Masitinib + Crizotinib; first compound 0.1 µM): 0.394
- relative viability (Masitinib + Crizotinib; first compound 0.3162 µM): 0.288
- relative viability (Masitinib + Crizotinib; first compound 1 µM): 0.238
- relative viability ([1]; first compound 0.8 µM): 0.212
- relative viability ([1]; first compound 2.53 µM): 0.207
- relative viability ([1]; first compound 8 µM): 0.168
- relative viability (Masitinib + Pemetrexed; first compound 0.01 µM): 0.168
- relative viability (Masitinib + Pemetrexed; first compound 0.03162 µM): 0.154
- relative viability (Masitinib + Pemetrexed; first compound 0.1 µM): 0.169
- relative viability (Masitinib + Pemetrexed; first compound 0.3162 µM): 0.173
- relative viability (Masitinib + Pemetrexed; first compound 1 µM): 0.168
